pIC50: −log10 of the molar value. Where two headings read alike, the source gives them in different places.
What was measured:
[1] = molecular target: NSD2 [1-1365] (Homo sapiens (Human), UniProt O96028); experiment: LC-MS/MS-based NSD2 enzymatic assay (SAH production); assay type: biochemical; conditions: read-out: NSD2 IC50
How it was run: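 Full-length NSD2 [1-1365] (8 nM final) with 1 μM SAM and 400 nM mouse-liver nucleosome in Tris pH 8.0 buffer; inhibitor preincubated 20 min with enzyme/SAM before nucleosome addition. Reaction 90 min at room temperature, TFA-quenched; SAH quantified by LC-MS/MS against d4-SAH internal standard and SAH standard curve.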

[2] = system: cellular H3K36me2 level in thyroid carcinoma cell line CGTH-W-1 (NSD2 E1099K); experiment: H3K36me2 cellular ELISA assay in CGTH-W-1 line; assay type: cell-based; conditions: Homo sapiens, CGTH-W-1, 72 h, read-out: H3K36me2 ELISA in CGTH-W-1
How it was run: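 CGTH-W-1 thyroid carcinoma cells (NSD2 E1099K gain-of-function) exposed to compound for 72 hours. Histone-bound plates probed for H3K36me2 and total H3 by chemiluminescent ELISA. Viability checked on a parallel plate with CellTiter-Glo.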

[3] = system: cellular H3K36me2 level in multiple myeloma cell line KMS11 (t(4;14)+); experiment: H3K36me2 cellular ELISA assay in KMS11-Par line; assay type: cell-based; conditions: Homo sapiens, KMS-11, ELISA, read-out: H3K36me2 ELISA in KMS11-Par
How it was run: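 KMS11 cells were seeded a day ahead at 1,250 per well in Opti-MEM with B-27/N2, then treated with compound for 72 h. Histones were acid-extracted with 0.4M HCl, and H3K36me2 and total H3 were read by chemiluminescent ELISA. Viability was checked with CellTiter-Glo on a parallel plate in maintenance media.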

[4] = NSD2 biochemical activity, class symbols
[5] = KMS11-Par line (t(4;14)+), 72 hours treatment

Sequence of NSD2 [1-1365] (O96028 whole entry): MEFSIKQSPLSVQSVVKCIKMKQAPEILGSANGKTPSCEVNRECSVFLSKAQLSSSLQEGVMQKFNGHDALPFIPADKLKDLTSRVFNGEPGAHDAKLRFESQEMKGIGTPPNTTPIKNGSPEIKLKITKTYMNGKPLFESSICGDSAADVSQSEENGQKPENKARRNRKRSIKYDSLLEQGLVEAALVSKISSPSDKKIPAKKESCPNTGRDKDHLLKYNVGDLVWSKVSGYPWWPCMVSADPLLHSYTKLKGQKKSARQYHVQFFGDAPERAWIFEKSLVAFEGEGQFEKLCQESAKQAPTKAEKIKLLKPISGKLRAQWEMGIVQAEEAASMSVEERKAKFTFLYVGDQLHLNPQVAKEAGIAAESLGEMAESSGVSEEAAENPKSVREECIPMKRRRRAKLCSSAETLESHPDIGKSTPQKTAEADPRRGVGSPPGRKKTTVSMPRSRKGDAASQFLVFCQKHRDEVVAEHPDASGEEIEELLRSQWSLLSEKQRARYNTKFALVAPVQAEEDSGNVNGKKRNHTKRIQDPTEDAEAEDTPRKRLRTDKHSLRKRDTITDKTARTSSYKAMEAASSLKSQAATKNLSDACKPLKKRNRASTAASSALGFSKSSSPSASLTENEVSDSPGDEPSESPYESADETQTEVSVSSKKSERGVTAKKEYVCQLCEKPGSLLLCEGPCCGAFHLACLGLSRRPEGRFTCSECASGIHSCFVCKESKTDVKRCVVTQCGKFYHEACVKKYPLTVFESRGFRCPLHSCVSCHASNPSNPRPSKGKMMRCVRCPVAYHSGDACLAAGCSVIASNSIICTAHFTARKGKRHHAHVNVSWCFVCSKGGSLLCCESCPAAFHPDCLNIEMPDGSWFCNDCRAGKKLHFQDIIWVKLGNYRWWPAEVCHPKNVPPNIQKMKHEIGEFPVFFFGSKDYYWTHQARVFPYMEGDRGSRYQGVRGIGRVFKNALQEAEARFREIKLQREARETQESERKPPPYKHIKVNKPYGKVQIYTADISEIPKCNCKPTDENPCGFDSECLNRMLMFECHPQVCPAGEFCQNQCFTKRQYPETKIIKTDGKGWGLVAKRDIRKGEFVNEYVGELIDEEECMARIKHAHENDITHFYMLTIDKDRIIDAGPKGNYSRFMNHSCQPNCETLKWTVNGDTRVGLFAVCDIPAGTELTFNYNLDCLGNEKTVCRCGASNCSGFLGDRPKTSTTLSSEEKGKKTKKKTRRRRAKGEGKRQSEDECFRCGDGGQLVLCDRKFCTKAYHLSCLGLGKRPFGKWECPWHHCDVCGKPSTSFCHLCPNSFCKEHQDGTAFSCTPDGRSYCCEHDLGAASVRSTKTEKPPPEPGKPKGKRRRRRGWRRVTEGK

## COc1ccc(-c2cc(Cn3cnc4c(N)ncnc43)c(N3CCC[C@](N)([C@H](O)C(F)F)C3)cn2)cc1Cl [Example 125, (S)-1-((R)-3-amino-1-(4-((6-amino-9H-purin-9-yl)methyl)-6-(3-chloro-4-methoxyphenyl)pyridin-3-yl)piperidin-3-yl)-2,2-difluoroethan-1-ol]
[1]; [4]
  pIC50: 8.00 to 9.00
[2]
  pIC50: 6.11
[3]; [5]
  pIC50: 5.40

## COc1cc(F)ccc1-c1cc(Cn2cnc3c(N)ncnc32)c(N2CCC[C@](N)([C@H](O)C(F)F)C2)cn1 [Example 173, (S)-1-((R)-3-amino-1-(4-((6-amino-9H-purin-9-yl)methyl)-6-(4-fluoro-2-methoxyphenyl)pyridin-3-yl)piperidin-3-yl)-2,2-difluoroethan-1-ol]
[1]
  pIC50: 6.00 to 8.00
[2]
  pIC50: 5.98
[3]; KMS11-Par line, 72 hours
  pIC50: 4.89

## Nc1ncnc2c1ncn2Cc1cc(-c2ccc(F)cc2F)ncc1N1CCC[C@](N)(c2cccc(Cl)n2)C1 [Example 238, (R)-9-((5-(3-amino-3-(6-chloropyridin-2-yl)piperidin-1-yl)-2-(2,4-difluorophenyl)pyridin-4-yl)methyl)-9H-purin-6-amine]
[1]
  pIC50: 8.00 to 9.00
[2]
  pIC50: 6.23
[3]; KMS11-Par line, 72 hours
  pIC50: 5.87

## Nc1ncnc2c1ncn2Cc1cc(-c2ccc(F)c(F)c2)ncc1N1CCC[C@](N)(c2nc(Cl)ccc2F)C1 [Example 192, (R)-9-((5-(3-amino-3-(6-chloro-3-fluoropyridin-2-yl)piperidin-1-yl)-2-(3,4-difluorophenyl)pyridin-4-yl)methyl)-9H-purin-6-amine]
[1]
  pIC50: 6.00 to 8.00
[2]
  pIC50: 6.14
[3]; KMS11-Par line, 72 hours
  pIC50: 5.66

## Nc1ncnc2c1ncn2Cc1cc(-c2ccc(Cl)cc2F)ncc1N1CCC[C@](N)([C@@H](O)C(F)F)C1 [Example 133, (R)-1-((R)-3-amino-1-(4-((6-amino-9H-purin-9-yl)methyl)-6-(4-chloro-2-fluorophenyl)pyridin-3-yl)piperidin-3-yl)-2,2-difluoroethan-1-ol]
[1]; [4]
  pIC50: 6.00 to 8.00
[2]
  pIC50: 6.75
[3]; [5]
  pIC50: 5.79

## COc1ccc(-c2cc(Cn3cnc4c(N)ncnc43)c(N3CCC[C@](N)(C(F)F)C3)cn2)cc1F [Example 305, (R)-9-((5-(3-amino-3-(difluoromethyl)piperidin-1-yl)-2-(3-fluoro-4-methoxyphenyl)pyridin-4-yl)methyl)-9H-purin-6-amine]
[1]
  pIC50: 6.00 to 8.00
[2]
  pIC50: 5.47
[3]; KMS11-Par line, 72 hours
  pIC50: 5.32

## Nc1ncnc2c1ncn2Cc1cc(-c2ccc(F)c(F)c2)ncc1N1CCC[C@](N)(c2cc(O)cc(F)n2)C1 [Example 206, (R)-2-(3-amino-1-(4-((6-amino-9H-purin-9-yl)methyl)-6-(3,4-difluorophenyl)pyridin-3-yl)piperidin-3-yl)-6-fluoropyridin-4-ol]
[1]
  pIC50: 8.00 to 9.00
[2]
  pIC50: 6.93
[3]; KMS11-Par line, 72 hours
  pIC50: 5.94

## Nc1ncnc2c1ncn2Cc1cc(-c2ccc(F)c(F)c2)ncc1N1CCC[C@](N)(c2cccc(CF)n2)C1 [Example 226, (R)-9-((5-(3-amino-3-(6-(fluoromethyl)pyridin-2-yl)piperidin-1-yl)-2-(3,4-difluorophenyl)pyridin-4-yl)methyl)-9H-purin-6-amine]
[1]
  pIC50: 8.00 to 9.00
[2]
  pIC50: 7.18
[3]; KMS11-Par line, 72 hours
  pIC50: 6.77

## Nc1ncnc2c1ncn2Cc1cc(-c2ccc(F)c(F)c2)ncc1N1CCC[C@](N)(c2nc(F)ccc2O)C1 [Example 239, (R)-2-(3-amino-1-(4-((6-amino-9H-purin-9-yl)methyl)-6-(3,4-difluorophenyl)pyridin-3-yl)piperidin-3-yl)-6-fluoropyridin-3-ol]
[1]
  pIC50: 8.00 to 9.00
[2]
  pIC50: 6.45
[3]; KMS11-Par line, 72 hours
  pIC50: 5.81

## C[C@@H](F)c1cccc([C@@]2(N)CCCN(c3cnc(-c4ccc(F)cc4)cc3Cn3cnc4c(N)ncnc43)C2)n1 [Example 212, 9-((5-((R)-3-amino-3-(6-((R)-1-fluoroethyl)pyridin-2-yl)piperidin-1-yl)-2-(4-fluorophenyl)pyridin-4-yl)methyl)-9H-purin-6-amine]
[1]
  pIC50: 6.00 to 8.00
[2]
  pIC50: 6.88
[3]; KMS11-Par line, 72 hours
  pIC50: 6.54

Reference: patent publication US11420970B1 (NOVARTIS AG, priority 2019, dated 2022)
